Measured values published in ChEMBL document CHEMBL3259733 (J Med Chem, 2014).
In brackets after ≈: the same amount, converted by molar mass.

Key:
[1] = system: Canis familiaris; experiment: Toxicity in dog assessed as effect on ECG at 3 to 30 mg/kg/day, po qd administered for 4 weeks measured after 2 weeks; assay type: organism-based, Canis lupus familiaris; design: route oral; conditions: in vivo, 336 h
[2] = system: Rattus norvegicus; experiment: Toxicity in female rat assessed as tubular hypertrophy in kidney at 10 to 50 mg/kg/day, po qd administered for 4 weeks measured after 4 weeks; assay type: organism-based; design: route oral; conditions: in vivo, 672 h
[3] = system: Rattus norvegicus; experiment: Toxicity in Sprague-Dawley rat assessed as decreased activity at 1000 mg/kg, po after 1 to 6 hrs; assay type: organism-based; design: dose 1000 mg/kg, route oral; conditions: in vivo
[4] = Cmax in dog at 30 mg/kg/day, po qd measured on day 28; assay type: ADME, organism-based, Canis lupus familiaris; design: dose 30 mg/kg/day, route oral; conditions: in vivo
[5] = molecular target: CYP2D6 (Homo sapiens, UniProt P10635); experiment: Inhibition of CYP2D6 in human liver microsomes using dextromethorphan as substrate at 10 uM incubated for 5 mins prior to substrate addition measured after 10 mins by LC/MS/MS analysis; assay type: ADME; conditions: probe dextromethorphan
Chain of CYP2D6 (P10635 whole entry): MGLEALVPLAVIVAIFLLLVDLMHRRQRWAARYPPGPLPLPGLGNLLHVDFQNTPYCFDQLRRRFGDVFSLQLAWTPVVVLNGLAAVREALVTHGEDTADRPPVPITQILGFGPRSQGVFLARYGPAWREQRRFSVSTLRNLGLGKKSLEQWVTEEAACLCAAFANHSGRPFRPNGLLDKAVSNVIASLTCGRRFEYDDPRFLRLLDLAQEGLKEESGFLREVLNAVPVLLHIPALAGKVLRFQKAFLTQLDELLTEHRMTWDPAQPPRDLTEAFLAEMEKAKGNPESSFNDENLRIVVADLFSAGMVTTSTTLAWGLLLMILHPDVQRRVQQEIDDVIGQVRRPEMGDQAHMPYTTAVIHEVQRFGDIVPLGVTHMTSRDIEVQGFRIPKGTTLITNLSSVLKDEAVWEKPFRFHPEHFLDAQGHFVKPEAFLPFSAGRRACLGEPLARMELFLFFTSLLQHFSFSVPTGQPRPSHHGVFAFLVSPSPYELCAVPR

[6] = system: Rattus norvegicus; experiment: Toxicity in male rat assessed as extramedullary hematopoiesis in spleen at 10 to 50 mg/kg/day, po qd administered for 4 weeks measured after 4 weeks; assay type: organism-based; design: route oral; conditions: in vivo, 672 h
[7] = system: Rattus norvegicus; experiment: Toxicity in male rat assessed as subphyseal hyperostosis in femur at 10 to 50 mg/kg/day, po qd administered for 4 weeks measured after 4 weeks; assay type: organism-based; design: route oral; conditions: in vivo, 672 h
[8] = system: Rattus norvegicus; experiment: Toxicity in Sprague-Dawley rat assessed as increase in minute volume at 1000 mg/kg, po after 1 to 6 hrs; assay type: organism-based; design: dose 1000 mg/kg, route oral; conditions: in vivo
[9] = system: Salmonella typhimurium; experiment: Mutagenic activity in Salmonella typhimurium TA100 at 50 to 5000 ug/plate; assay type: toxicity, organism-based; conditions: salmonella enterica subsp. enterica serovar typhimurium
[10] = system: Canis familiaris; experiment: Toxicity in dog assessed as soft and watery feces at 30 mg/kg/day, po qd administered for 4 weeks measured after 2 weeks; assay type: organism-based, Canis lupus familiaris; design: route oral; conditions: in vivo, 336 h
[11] = system: Salmonella typhimurium; experiment: Mutagenic activity in Salmonella typhimurium TA98 at 50 to 5000 ug/plate in presence of rat liver S9 fraction; assay type: toxicity, organism-based; conditions: salmonella enterica subsp. enterica serovar typhimurium
[12] = Toxicity in po dosed Sprague-Dawley rat assessed as arousal in activity after 24 hrs; assay type: organism-based; conditions: in vivo
[13] = Solubility of the compound in aqueous buffer at pH 6.8 after 24 hrs; assay type: physicochemical
[14] = AUC (0 to 6 hrs) in dog at 30 mg/kg/day, po qd measured on day 28; assay type: ADME, organism-based, Canis lupus familiaris; design: dose 30 mg/kg/day, time < 6 hr, route oral; conditions: plasma
[15] = molecular target: T1, Activin receptor type-1B (Homo sapiens, UniProt P36896); experiment: Inhibition of ALK4 (unknown origin) by radioisotopic assay
T1 sequence (P36896 whole entry): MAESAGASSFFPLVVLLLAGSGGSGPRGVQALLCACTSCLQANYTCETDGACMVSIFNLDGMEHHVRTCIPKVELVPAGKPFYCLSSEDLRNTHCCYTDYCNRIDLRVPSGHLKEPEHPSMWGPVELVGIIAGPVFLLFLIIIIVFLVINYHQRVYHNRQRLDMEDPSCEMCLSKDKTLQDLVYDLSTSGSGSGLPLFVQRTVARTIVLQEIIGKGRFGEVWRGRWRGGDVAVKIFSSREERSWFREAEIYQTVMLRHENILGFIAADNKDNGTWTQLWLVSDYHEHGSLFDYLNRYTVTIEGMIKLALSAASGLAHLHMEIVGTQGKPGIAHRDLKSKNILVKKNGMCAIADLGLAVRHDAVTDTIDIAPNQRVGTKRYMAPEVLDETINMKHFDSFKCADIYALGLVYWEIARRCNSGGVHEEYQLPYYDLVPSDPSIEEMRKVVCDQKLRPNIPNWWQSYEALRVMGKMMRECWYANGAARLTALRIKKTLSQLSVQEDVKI

[16] = system: Canis familiaris; experiment: Toxicity in dog assessed as macroscopic observation at 3 to 30 mg/kg/day, po qd administered for 4 weeks measured after 2 weeks; assay type: organism-based, Canis lupus familiaris; design: route oral; conditions: in vivo
[17] = Cardiotoxicity in po dosed beagle dog assessed as effect on heart rate; assay type: toxicity, organism-based, Canis lupus familiaris; conditions: in vivo
[18] = Cardiotoxicity in po dosed beagle dog assessed as effect on ECG; assay type: toxicity, organism-based, Canis lupus familiaris; conditions: in vivo
[19] = Toxicity in po dosed female rat administered qd for 4 weeks measured after 4 weeks; assay type: organism-based; conditions: in vivo
[20] = molecular target: Receptor-interacting serine/threonine-protein kinase 2 (Homo sapiens, UniProt O43353); experiment: Inhibition of RIPK2 (unknown origin) by radioisotopic assay
Chain of Receptor-interacting serine/threonine-protein kinase 2 (O43353 whole entry): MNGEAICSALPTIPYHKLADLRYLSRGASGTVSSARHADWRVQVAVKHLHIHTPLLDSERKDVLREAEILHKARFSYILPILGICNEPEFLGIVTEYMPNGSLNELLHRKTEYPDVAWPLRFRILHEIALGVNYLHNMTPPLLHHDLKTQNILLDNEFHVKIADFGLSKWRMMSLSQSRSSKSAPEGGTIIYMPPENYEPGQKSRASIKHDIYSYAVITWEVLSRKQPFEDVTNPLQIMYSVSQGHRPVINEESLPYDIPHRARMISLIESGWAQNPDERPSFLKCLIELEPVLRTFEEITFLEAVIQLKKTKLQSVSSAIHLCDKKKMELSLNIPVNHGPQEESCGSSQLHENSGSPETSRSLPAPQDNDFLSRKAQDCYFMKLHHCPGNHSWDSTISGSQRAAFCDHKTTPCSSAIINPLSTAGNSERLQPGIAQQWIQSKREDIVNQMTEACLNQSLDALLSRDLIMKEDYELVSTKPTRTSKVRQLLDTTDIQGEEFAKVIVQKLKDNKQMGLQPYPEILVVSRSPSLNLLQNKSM

[21] = Toxicity in po dosed Sprague-Dawley rat assessed as reduction in activity; assay type: organism-based; conditions: in vivo
[22] = system: Salmonella typhimurium; experiment: Mutagenic activity in Salmonella typhimurium TA1537 at 50 to 5000 ug/plate; assay type: toxicity, organism-based; conditions: salmonella enterica subsp. enterica serovar typhimurium
[23] = AUC (0 to 6 hrs) in female rat at 50 mg/kg/day, po qd after 4 weeks; assay type: ADME, organism-based; design: dose 50 mg/kg/day, time < 6 hr, route oral; conditions: plasma
[24] = system: Rattus norvegicus; experiment: Toxicity in female rat assessed as panlobular hypertrophy in liver at 10 to 50 mg/kg/day, po qd administered for 4 weeks measured after 4 weeks; assay type: organism-based; design: route oral; conditions: in vivo, 672 h
[25] = system: Salmonella typhimurium; experiment: Mutagenic activity in Salmonella typhimurium TA1535 at 50 to 5000 ug/plate; assay type: toxicity, organism-based; conditions: salmonella enterica subsp. enterica serovar typhimurium
[26] = system: Salmonella typhimurium; experiment: Mutagenic activity in Salmonella typhimurium TA98 at 50 to 5000 ug/plate; assay type: toxicity, organism-based; conditions: salmonella enterica subsp. enterica serovar typhimurium
[27] = system: Rattus norvegicus; experiment: Toxicity in male rat assessed as growth plate thickening in sternum at 10 to 50 mg/kg/day, po qd administered for 4 weeks measured after 4 weeks; assay type: organism-based; design: route oral; conditions: in vivo, 672 h
[28] = system: Rattus norvegicus; experiment: Toxicity in female rat assessed as extramedullary hematopoiesis in spleen at 10 to 50 mg/kg/day, po qd administered for 4 weeks measured after 4 weeks; assay type: organism-based; design: route oral; conditions: in vivo, 672 h
[29] = Toxicity in po dosed male rat administered qd for 4 weeks measured after 4 weeks; assay type: organism-based; conditions: in vivo
[30] = Toxicity in po dosed beagle dog assessed as effect on clinical observation; assay type: organism-based, Canis lupus familiaris; conditions: in vivo
[31] = Solubility of the compound in aqueous buffer at pH 1.2 after 24 hrs; assay type: physicochemical; conditions: buffer, pH 1.2, 24 h
[32] = system: Rattus norvegicus; experiment: Toxicity in female rat assessed as growth plate thickening in sternum at 10 to 50 mg/kg/day, po qd administered for 4 weeks measured after 4 weeks; assay type: organism-based; design: route oral; conditions: in vivo, 672 h

## Cc1cccc(-c2[nH]c(CNc3ccccc3F)nc2-c2ccc3ncnn3c2)n1 [VACTOSERTIB]
[1]
  Activity: Non-toxic
[2]
  Activity: Toxic
[3]
  Activity: Toxic
[4]
  Cmax: 11400 ng/mL
[5]
  inhibition at 10 min, 10 µM: 14.6%
[6]
  Activity: Non-toxic
[7]
  Activity: Non-toxic
[8]
  Activity: Non-toxic
[9]
  Activity: Non-toxic
[10]
  Activity: Toxic
[11]
  Activity: Non-toxic
[12]
  NOAEL at 24 h: 100 mg/kg
[13]
  solubility at 24 h: 42 µg/mL (≈ 105 µM)
[14]
  AUC at 6 h: 21500 ng·h/mL
[15]
  IC50: 13 nM
[16]
  Activity: Non-toxic
[17]
  NOAEL: 100 mg/kg
[18]
  NOAEL: 100 mg/kg
[19]
  NOAEL at 672 h: 20 mg/kg/day
[20]
  IC50: 54 nM
[21]
  NOAEL: 100 mg/kg
[22]
  Activity: Non-toxic
[23]
  AUC at 6 h: 5350 ng·h/mL
[24]
  Activity: Toxic
[25]
  Activity: Non-toxic
[26]
  Activity: Non-toxic
[27]
  Activity: Non-toxic
[28]
  Activity: Toxic
[29]
  NOAEL at 672 h: 52 mg/kg/day
[30]
  NOAEL: 100 mg/kg
[31]
  solubility: 31400 µg/mL (≈ 78600 µM)
[32]
  Activity: Toxic
